Molecules are shown by their SMILES. Bounds are passed on as bounds.

The test system of one series is TMD8 cells. As to the kind of experiment: Cell proliferation inhibition in vitro, TMD8 cells by CCK-8 method. Type of series: cell-based. Conditions: Homo sapiens, 72 hours, read-out: Inhibitions of cell activities IC50 (nM) TMD8.
Another series has as its system OCI-LY10 cells. As to the kind of experiment: Cell proliferation inhibition in vitro, OCI-ly10 cells by CCK-8 method. The class given is cell-based. Particulars: Homo sapiens, 72 hours, read-out: Inhibitions of cell activities IC50 (nM) OCI-LY10. A general note: Tetrazolium assays rely on reduction of a dye to a coloured formazan, in cell work by metabolically active cells.

Series [1] in a line: Pharmacokinetic test in SD rats (oral 10 mg/kg, intravenous 1 mg/kg). Type of series: in vivo. Conditions: SD rat; for F (po) %: oral 10 mg/kg vs intravenous 1 mg/kg; for clearance / half-life / AUC / Cmax / Tmax: male, plasma; for clearance / half-life: intravenous 1 mg/kg; for clearance: read-out: Cl (iv) (converted); for half-life: read-out: T½ (iv) h (converted); for AUC / Cmax / Tmax: oral 10 mg/kg. The method, then:
SD rat, male (purchased from Shanghai Sippr-Bk Laboratory Animal Co., Ltd.), each tested compound was administered at a single dose to SD rats by oral administration (10 mg/kg, 3 rats in each group) and intravenous administration (1 mg/kg, 3 rats in each group) for the pharmacokinetic study. The tested compounds were dissolved using DMSO/[…] sodium chloride injection=5/95 (V/V), and vortexed for 1 minute, and after 1 minute of sonication, the compounds were formulated into solutions for administrations. Animals were fasted for 16-17 hours prior to oral administration and feeding was restored 4 hours after administration. After oral and intravenous administration, pharmacokinetic samples were collected from SD rats by jugular vein or cardiac puncture at the following time points: before administration, 5 minute, 15 minute, 30 minute, 1 hour, 2 hours, 4 hours, 6 hours, 8 hours and 24 hours after administration. 3 whole blood samples were collected at each time point, and the collected amount was about 0.2 mL, and the collected samples were anticoagulated by heparin sodium. After collection, the blood samples were immediately placed on ice and centrifuged to separate plasma within 30 minutes (centrifugation conditions: 8000 rpm, 6 minute, 2-8° C.). The collected plasma was stored at −70° C. prior to analysis. 50 μL of plasma sample was brought into a 1.5 mL centrifuge tube, 250 μL of internal standard solution (blank with no internal standard but the same volume of methanol added) was added, blended with vortex, centrifuged at 15000 rpm for 5 minutes. 200 μL of supernatant was taken and added to a 96-well sample plate and the samples were analyzed by LC-MS/MS.

The test system of another series is DOHH2 cells. As to the kind of experiment: Cell proliferation inhibition in vitro, DOHH2 cells by CTG assay. Type of series: cell-based. Conditions: Homo sapiens, DOHH-2, 72 hours, read-out: Inhibitions of cell activities IC50 (nM) DOHH2.
The target of a further series is hERG potassium channel (Homo sapiens (Human), UniProt Q12809). As to the kind of experiment: hERG experiment to investigate potential cardiotoxicity (manual patch clamp, CHO hERG cells). Type of series: cell-based. Particulars: whole cell patch clamp, tail current. The method, then:
CHO hERG cells were grown in a culture dish containing the above medium, and cultured in an incubator at 37° C. and 5% CO2. CHO hERG cells were transferred to circular glass slides placed in the culture dish 24-48 hours prior to electrophysiological experiments and grown under the same medium and culture conditions as above. The density of CHO hERG cells on each circular slide shall meet the requirement that most of the cells are independent and individual.
2: Preparation of Experimental Solutions
3: Electrophysiological Recording System
A manual patch clamp system (HEKA EPC-10 signal amplifier and digital conversion system, purchased from HEKA Electronics, Germany) is used in this experiment for whole cell currents recording. A circular slide with CHO hERG cells grown on its surface was placed in an electrophysiology recording tank under an inverted microscope. The extracellular fluid was continuously perfused in the recording tank (about 1 ml per minute). A conventional whole cell patch clamp current recording technique was used in the experimental procedure. Unless otherwise specified, the experiments were carried out at conventional room temperature (about 25° C.). The cells were clamped at a voltage of −80 mV. The clamp voltage for cells was depolarized to +20 mV to activate the hERG potassium channel, and after 5 seconds, the cells were clamped to −50 mV to eliminate inactivation and generate a tail current. The tail current peak was used as the value of the hERG current magnitude. After the hERG potassium current recorded in the above step was stable under the continuous extracellular fluid perfusion in the recording tank, the drug to be tested can be perfused simultaneously and filled until the inhibitory effect of the drug on the hERG current reached a steady state. Generally, the superposition of the last three consecutive current recording lines was used as a criterion for judging whether or not the state was stable. After reaching a steady state, a wash with extracellular fluid perfusion was conducted until the hERG returned to that before the drug was added. One cell can be used to test one or more drugs, or multiple concentrations of the same drug, but need to be washed with an extracellular fluid between different drugs. Cisapride (purchased from Sigma) was used as a positive control in the experiment to ensure that the cells used were of normal quality.
4: Treatment and Dilution of Compounds
Prior to testing, the compounds were first diluted to 10, 3, 1, 0.3, and 0.1 mM stock solutions by a method of gradual dilution with DMSO, and were then diluted to the final M test concentration with extracellular fluids. The final concentration of DMSO in each of the other compound solutions was 0.1%, except that the DMSO concentration in the 30 μM compound test solution was 0.3%. The test concentration of the positive control (Cisapride) was 0.1 μM. All compound solutions were sonicated and shaken for a routine of 5 to 10 minutes to ensure complete dissolution of the compounds.
The test data were analyzed by HEKA Patchmaster, Microsoft Excel and data analysis software provided by Graphpad Prism.
(The hERG channel carries a current that helps repolarise heart muscle cells.)

For a further series, the target named is BTK kinase (Homo sapiens (Human), UniProt Q06187). As to the kind of experiment: In vitro assay for the inhibition of BTK kinase activity (Mobility-Shift Assay). The class given is biochemical. The procedure, abridged: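 Fluorescently labelled peptide substrate converted by the kinase; substrate and phosphorylated product separated by charge on a microfluidic chip (mobility shift) and quantified separately. Results expressed as conversion rate; control wells received 100% DMSO.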
Sequence of BTK kinase (Q06187 whole entry): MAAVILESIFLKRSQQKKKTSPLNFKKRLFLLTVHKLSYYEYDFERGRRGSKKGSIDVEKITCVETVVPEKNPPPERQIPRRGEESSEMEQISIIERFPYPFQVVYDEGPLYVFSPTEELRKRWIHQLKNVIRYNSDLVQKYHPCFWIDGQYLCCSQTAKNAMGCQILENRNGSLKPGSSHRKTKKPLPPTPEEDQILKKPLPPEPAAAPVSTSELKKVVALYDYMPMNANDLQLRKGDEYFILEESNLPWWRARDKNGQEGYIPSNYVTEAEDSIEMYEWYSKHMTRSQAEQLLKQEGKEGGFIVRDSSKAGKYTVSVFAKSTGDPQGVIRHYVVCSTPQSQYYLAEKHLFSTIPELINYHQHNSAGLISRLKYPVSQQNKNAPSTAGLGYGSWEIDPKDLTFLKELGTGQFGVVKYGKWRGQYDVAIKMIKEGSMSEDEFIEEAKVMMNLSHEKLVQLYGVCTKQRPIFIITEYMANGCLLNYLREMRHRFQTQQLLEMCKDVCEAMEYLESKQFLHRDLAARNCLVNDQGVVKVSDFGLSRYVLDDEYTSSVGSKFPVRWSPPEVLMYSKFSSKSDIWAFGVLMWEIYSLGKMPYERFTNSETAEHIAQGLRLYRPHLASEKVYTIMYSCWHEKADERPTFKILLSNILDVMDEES

Sequence of hERG potassium channel (Q12809 whole entry): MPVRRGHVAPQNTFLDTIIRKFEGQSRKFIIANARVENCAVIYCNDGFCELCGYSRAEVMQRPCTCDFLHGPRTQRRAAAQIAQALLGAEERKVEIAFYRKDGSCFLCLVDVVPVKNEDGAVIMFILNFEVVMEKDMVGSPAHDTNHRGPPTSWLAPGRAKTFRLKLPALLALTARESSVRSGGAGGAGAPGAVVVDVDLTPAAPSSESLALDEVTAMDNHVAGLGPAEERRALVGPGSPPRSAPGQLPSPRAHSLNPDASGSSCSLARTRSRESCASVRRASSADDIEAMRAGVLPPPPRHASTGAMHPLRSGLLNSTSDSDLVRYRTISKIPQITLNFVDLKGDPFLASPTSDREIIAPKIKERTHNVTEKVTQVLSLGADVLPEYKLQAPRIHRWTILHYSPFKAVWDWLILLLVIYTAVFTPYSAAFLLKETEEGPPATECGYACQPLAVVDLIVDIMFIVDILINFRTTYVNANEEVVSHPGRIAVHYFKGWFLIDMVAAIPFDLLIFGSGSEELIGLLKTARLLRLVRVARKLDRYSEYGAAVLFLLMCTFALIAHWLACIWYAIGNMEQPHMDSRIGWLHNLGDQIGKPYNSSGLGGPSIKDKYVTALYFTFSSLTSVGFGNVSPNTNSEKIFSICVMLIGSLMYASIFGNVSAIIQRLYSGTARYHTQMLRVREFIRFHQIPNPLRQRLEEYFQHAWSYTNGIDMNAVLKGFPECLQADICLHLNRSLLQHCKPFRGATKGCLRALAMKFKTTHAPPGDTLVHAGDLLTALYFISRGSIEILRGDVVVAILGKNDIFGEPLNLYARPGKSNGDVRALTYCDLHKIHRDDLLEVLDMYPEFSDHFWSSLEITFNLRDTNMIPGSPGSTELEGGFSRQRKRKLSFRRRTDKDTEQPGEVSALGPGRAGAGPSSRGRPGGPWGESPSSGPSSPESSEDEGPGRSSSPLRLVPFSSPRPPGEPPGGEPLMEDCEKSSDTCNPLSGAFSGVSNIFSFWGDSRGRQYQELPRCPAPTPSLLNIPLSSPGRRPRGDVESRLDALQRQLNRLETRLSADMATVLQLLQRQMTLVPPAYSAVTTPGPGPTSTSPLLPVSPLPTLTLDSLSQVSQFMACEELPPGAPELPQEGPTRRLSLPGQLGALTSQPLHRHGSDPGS

By IC50 is commonly meant the midpoint of a concentration-inhibition curve. By AUC is commonly meant the area under the concentration-time curve, a measure of exposure. Lower therefore signals low exposure. For orientation: Cmax means the peak of the concentration-time curve. Broadly, the Tmax is the time at which the peak concentration occurs. For `C=CC(=O)N1CC2CCCC2C1c1nc(-c2ccc(C(=O)Nc3ccccn3)cc2)c2c(N)nccn12` (stereo not shown) [Example 3], in the series on TMD8 cells, the IC50 worked out at 0.26 nM. For the same compound, the IC50 in the series with OCI-LY10 cells is 0.24 nM. Further, in series [1], the “F (po) %” value came to 52.55%, the clearance is 57 mL/min/kg, the half-life is 37.2 min and the AUC turned out to be 1490 ng·h/mL. In addition, in series [1], the peak level (Cmax) was 1620 ng/mL and the Tmax amounted to 16.2 min. Besides, the IC50 in the series with DOHH2 cells was determined as 191 nM. The same compound showed an IC50 on hERG potassium channel of more than 30000 nM.

For `C=CC(=O)N1C[C@H]2[C@@H]([C@H]1c1nc(-c3ccc(C(=O)Nc4ccccn4)cc3)c3c(N)nccn13)C2(C)C` [Example 5], the IC50 in the series with TMD8 cells stood at 3.6 nM. In addition, in the series with OCI-LY10 cells, the IC50 is 0.21 nM. In series [1], the “F (po) %” value was found to be 20.64%, the clearance is 121 mL/min/kg, the half-life was 7.8 min and the AUC stood at 278 ng·h/mL. Further, in series [1], the highest level (Cmax) was 303 ng/mL and the Tmax amounted to 6 min. Further, the IC50 in the series with DOHH2 cells was 175 nM. Also, the IC50 against hERG potassium channel was more than 30000 nM. For the same compound, on BTK kinase, the IC50 is 21 nM.

Consider `C=CC(=O)N1C2CCC1(c1nc(-c3ccc(C(=O)Nc4ccccn4)cc3)c3c(N)nccn13)COC2` (stereo not shown) [Example 11], for which the IC50 with TMD8 cells amounted to 1.5 nM. In the series with OCI-LY10 cells, the IC50 was 1.8 nM. In series [1], the “F (po) %” value is listed as 34.59%, the clearance is 36.5 mL/min/kg, the half-life is 28.2 min and the AUC is 1580 ng·h/mL. In series [1], the Cmax was determined as 1610 ng/mL and the Tmax was determined as 19.8 min. The IC50 with DOHH2 cells worked out at 133 nM. The IC50 against hERG potassium channel is more than 30000 nM. Moreover, at BTK kinase, the IC50 amounted to 2.6 nM.

Regarding `C=CC(=O)N1C2C[C@@H](C1c1nc(-c3ccc(C(=O)Nc4ccccn4)cc3)c3c(N)nccn13)N(C(C)=O)C2` (stereo partly shown) [Example 18], the IC50 was 1.6 nM in the series on TMD8 cells; 0.25 nM in the series on OCI-LY10 cells; 177 nM with DOHH2 cells; more than 30000 nM on hERG potassium channel; 1.4 nM at BTK kinase.

With `C=CC(=O)N1[C@@H]2CC[C@@H](C2)[C@H]1c1nc(-c2ccc(C(=O)Nc3ccccn3)cc2)c2c(N)nccn12` [Example 22, 4-(3-((1R,3S,4S)-2-acryloyl-2-azabicyclo[2.2.1]heptan-3-yl)-8-aminoimidazo[1,5-a]pyrazin-1-yl)-N-(pyridin-2-yl)benzamide], the IC50 with TMD8 cells is 4.2 nM. The IC50 in the series with OCI-LY10 cells turned out to be 0.38 nM. For the same compound, in series [1], the “F (po) %” value came out at 36.56%, the clearance is 58.5 mL/min/kg, the half-life was 36 min and the AUC was determined as 1040 ng·h/mL. Moreover, in series [1], the Cmax was 1160 ng/mL and the time to peak (Tmax) was found to be 15 min. The IC50 in the series with DOHH2 cells was 182 nM. On hERG potassium channel, this compound came in with a 50% inhibitory concentration (IC50) of more than 30000 nM. In addition, the IC50 on BTK kinase came to 3.3 nM.

As for `CC#CC(=O)N1C2CC[C@@H](C2)C1c1nc(-c2ccc(C(=O)Nc3cc(C(F)(F)F)ccn3)cc2)c2c(N)nccn12` (stereo partly shown) [Example 47], the IC50 in the series on TMD8 cells stood at 4.6 nM. Further, the IC50 in the series on OCI-LY10 cells was determined as 0.41 nM. Moreover, in series [1], the “F (po) %” value came out at 21.89%, the clearance is 38 mL/min/kg, the half-life is 18 min and the AUC was 971 ng·h/mL. Also, in series [1], the Cmax is 1120 ng/mL and the Tmax was found to be 15 min. For the same compound, the IC50 with DOHH2 cells came out at 172 nM. The compound further had an IC50 against hERG potassium channel of more than 30000 nM. In addition, on BTK kinase, the IC50 came to 5.2 nM.

Take `C=CC(=O)N1C2CC[C@@H](C2)C1c1nc(-c2ccc(C(C)(O)c3ccccc3)cc2)c2c(N)nccn12` (stereo partly shown) [Example 79]: the IC50 in the series with TMD8 cells was 1.2 nM. The IC50 in the series with OCI-LY10 cells stood at 0.13 nM. Also, in series [1], the “F (po) %” value is reported as 27.12%, the clearance was 57.5 mL/min/kg, the half-life was 31.2 min and the AUC stood at 770 ng·h/mL. In addition, in series [1], the Cmax was determined as 1110 ng/mL and the Tmax was 12.6 min. In addition, the IC50 in the series on DOHH2 cells is 164 nM. The compound further had an IC50 on hERG potassium channel of more than 30000 nM. On BTK kinase, the IC50 was 4.9 nM.

With `C=CC(=O)N1CC2CCCC2C1c1nc(-c2ccc(Oc3ccccc3)cc2)c2c(N)nccn12` (stereo not shown) [Example 96], the 50% inhibitory concentration (IC50) in the series on TMD8 cells stood at 3.2 nM. For the same compound, in the series with OCI-LY10 cells, the IC50 was 0.34 nM. For the same compound, in series [1], the “F (po) %” value was determined as 34.53%, the clearance is 32.7 mL/min/kg, the half-life was 33 min and the AUC is 1580 ng·h/mL. For the same compound, in series [1], the peak level (Cmax) was 1590 ng/mL and the Tmax turned out to be 21.6 min. For the same compound, the IC50 in the series with DOHH2 cells is 200 nM. Besides, the IC50 at BTK kinase was 3.1 nM.

At hERG potassium channel, `C=CC(=O)N1CC2CCCC2[C@H]1c1nc(-c2ccc(Oc3ccccc3)cc2)c2c(N)nccn12` (stereo partly shown) [Example 96] yielded an IC50 of more than 30000 nM.

For `C=CC(=O)N1CCC[C@@H](n2nc(-c3ccc(Oc4ccccc4)cc3)c3c(N)ncnc32)C1` [Ibrutinib, reference compound], the IC50 in the series with TMD8 cells stood at 0.28 nM. Besides, the IC50 in the series on OCI-LY10 cells was determined as 0.41 nM. Further, in series [1], the “F (po) %” value is listed as 2.67%, the AUC came out at 218 ng·h/mL, the Cmax was 217 ng/mL and the Tmax worked out at 19.8 min. Moreover, the IC50 in the series on DOHH2 cells was found to be 705 nM.

(Values after US10793576B2, “Compound used as Bruton's tyrosine kinase inhibitor and preparation method and application thereof” (Chengdu Brilliant Pharmaceutical Co., LTD., priority 2017, dated 2020).)
